Source: patent US20240374545A1, “DIAGNOSIS OF IMMUNITY REDUCTION THROUGH INTESTINAL MICROFLORA ANALYSIS OF STOMACH CANCER PATIENTS, AND THERAGNOSTIC COMPOSITION USING INTESTINAL MICROFLORA” (THE CATHOLIC UNIVERSITY OF KOREA INDUSTRY-ACADEMIC …, priority 2022, published 2024)

What was measured:
[1] = tested on: AGS cell line, a stomach cancer cell line; assay: Stomach cancer transplant animal model (AGS subcutaneous in NSG mice), tumor growth; assay type: in vivo; conditions: NSG mice with AGS tumor, 50 mg/kg orally daily, compared to the Vehicle group (FIG. 3)
Experimental: It was confirmed whether SD217, the novel compound of the present invention, inhibited tumor growth. Specifically, a stomach cancer transplant animal model was fabricated by subcutaneously injecting 5×10^6 of the AGS cell line, a stomach cancer cell line, into 6-8-week-old immunodeficient mice (NSG). Thereafter, SD217 was orally administered daily at a concentration of 50 mg/kg. After AGS cell injection and SD217 administration, tumor size was measured three times weekly using calipers, and tumor volume was calculated by substituting the lengths in long axis and short axis of the tumor into Equation 1 below. As a control group, a Vehicle group injected with the same amount of PBS was used.

[2] = tested on: AGS cell line, a stomach cancer cell line; assay: Apoptosis of AGS stomach cancer cell line by Annexin/PI flow cytometry (SD217); assay type: cell-based; conditions: 48 hours
Experimental: It was determined whether SD217, a novel compound of the present invention, may specifically kill stomach cancer cells. Specifically, 2×10^5 of a AGS cell line, a stomach cancer cell line, was inoculated into a 6-well plate and then treated with SD217, the novel compound of the present invention, at a concentration of 0.2 mM after overnight, and after 48 hours, stained with Annexin/PI, and then apoptotic cells were analyzed by flow cytometry. As a control group, a Vehicle group treated with the same amount of PBS was used. Thereafter, early apoptotic cells were confirmed, a ratio of late apoptotic/necrotic cells was confirmed, and thus death of the stomach cancer cell line was confirmed.
It was confirmed whether SD217, the novel compound of the present invention, induced early and late apoptosis in stomach cancer cell line. Specifically, 2×10^5 of a AGS cell line, a stomach cancer cell line, was inoculated into a 6-well plate and then treated with SD217, the novel compound of the present invention, at concentrations of 1, 5, 10, 20, and 50 mM after overnight, and after 48 hours, stained with Annexin/PI, and then apoptotic cells were analyzed by flow cytometry.

[3] = tested on: Programmed Death-Ligand 1 (PD-L1); assay: PD-L1 positive cells in AGS stomach cancer cell line by flow cytometry; assay type: cell-based; conditions: AGS cells, 0.2, 0.5, and 1 mM, compared to the Vehicle group (FIG. 2)
Description: It was intended to confirm the expression of a Programmed Death-Ligand 1 (PD-L1) protein, an immunity reduction marker of stomach cancer cells, by SD217, a novel compound of the present invention. The PD-L1 protein was a surface protein of stomach cancer cells, and the PD-L1 is a protein that evaded the immune responses of T cells by binding to programmed cell death-1 (PD-1), a surface protein of activated T cells. […] Specifically, in the same manner as in Example 1, AGS cells, a stomach cancer cell line, were treated with 0.2, 0.5, and 1 mM of SD217 and reacted. Thereafter, PD-L1 positive cells were analyzed by flow cytometry. As a control group, a Vehicle group treated with PBS was used, and as a positive control group, 1 mM Metformin was used.

[4] = AGS cells, 1, 5, 10, 20, and 50 mM, compared to the Vehicle group (FIG. 4)

N=C(N)NC(=N)Nc1ccc(F)cc1F [SD217, 1-(2,4-difluorophenyl) biguanide] was tested, and the tumor growth [1] was “significantly inhibited”, the tumor volume [1] was “significantly reduced” and the apoptosis ([2]; AGS cells, 0.2 mM, Annexin/PI, compared to the Vehicle group (FIG. 1)) was “significantly increased”. The early apoptosis [2, 4] was “induced in a concentration-dependent manner”, the late apoptosis [2, 4] was “induced in a concentration-dependent manner” and the “number of PD-L1 positive cells” value [3] was “significantly reduced”.
